Measured values published in patent US20250082674A1, “METHODS OF TREATING COPPER METABOLISM-ASSOCIATED DISEASES OR DISORDERS” (priority 2021, published 2025).
Like-named read-outs stand apart in the source and are kept apart here.

Tested on: patients with Wilson disease (WD)
Description: The UWDRS Part II total score results for this pooled population are presented in Table 16 and FIG. 13 and the UWDRS Part III total score results are in Table 17 and FIG. 14. The UWDRS Part III Functional Subscale (comprised of the items arising from a chair, gait, handwriting and speech) results for this pooled population are presented in Table 18 and FIG. 15.

Bis-choline tetrathiomolybdate [BC-TTM]
UWDRS Part III (Range 0-175) LSM change from baseline (BC-TTM exposure 4 wks): −0.83
UWDRS Part III (Range 0-175) Mean change from baseline (BC-TTM exposure 4 wks): −0.72
UWDRS Part III Functional Subscale (Range 0-10) LSM change from baseline (BC-TTM exposure 4 wks): −0.083
UWDRS Part III Functional Subscale (Range 0-10) Mean change from baseline (BC-TTM exposure 4 wks): −0.072
UWDRS Part III (Range 0-175) LSM change from baseline (BC-TTM exposure 12 wks): −1.13
UWDRS Part III (Range 0-175) Mean change from baseline (BC-TTM exposure 12 wks): −1.11
UWDRS Part III Functional Subscale (Range 0-10) LSM change from baseline (BC-TTM exposure 12 wks): −0.141
UWDRS Part III Functional Subscale (Range 0-10) Mean change from baseline (BC-TTM exposure 12 wks): −0.137
UWDRS Part III (Range 0-175) LSM change from baseline (BC-TTM exposure 24 wks): −1.10
UWDRS Part III (Range 0-175) Mean change from baseline (BC-TTM exposure 24 wks): −0.97
UWDRS Part III Functional Subscale (Range 0-10) LSM change from baseline (BC-TTM exposure 24 wks): −0.146
UWDRS Part III Functional Subscale (Range 0-10) Mean change from baseline (BC-TTM exposure 24 wks): −0.157
UWDRS Part III (Range 0-175) LSM change from baseline (BC-TTM exposure 36 wks): −1.85
UWDRS Part III (Range 0-175) Mean change from baseline (BC-TTM exposure 36 wks): −2.38
UWDRS Part III Functional Subscale (Range 0-10) LSM change from baseline (BC-TTM exposure 36 wks): −0.202
UWDRS Part III Functional Subscale (Range 0-10) Mean change from baseline (BC-TTM exposure 36 wks): −0.286
UWDRS Part III (Range 0-175) LSM change from baseline (BC-TTM exposure 48 wks): −2.76
UWDRS Part III (Range 0-175) Mean change from baseline (BC-TTM exposure 48 wks): −3.37
UWDRS Part III Functional Subscale (Range 0-10) LSM change from baseline (BC-TTM exposure 48 wks): −0.285
UWDRS Part III Functional Subscale (Range 0-10) Mean change from baseline (BC-TTM exposure 48 wks): −0.345
UWDRS Part III (Range 0-175) LSM change from baseline (BC-TTM exposure 60 wks): −3.24
UWDRS Part III (Range 0-175) Mean change from baseline (BC-TTM exposure 60 wks): −2.00
UWDRS Part III Functional Subscale (Range 0-10) LSM change from baseline (BC-TTM exposure 60 wks): −0.355
UWDRS Part III Functional Subscale (Range 0-10) Mean change from baseline (BC-TTM exposure 60 wks): −0.422
UWDRS Part III (Range 0-175) LSM change from baseline (BC-TTM exposure 72 wks): −4.43
UWDRS Part III (Range 0-175) Mean change from baseline (BC-TTM exposure 72 wks): −4.93
UWDRS Part III Functional Subscale (Range 0-10) LSM change from baseline (BC-TTM exposure 72 wks): −0.399
UWDRS Part III Functional Subscale (Range 0-10) Mean change from baseline (BC-TTM exposure 72 wks): −0.494
UWDRS Part III (Range 0-175) LSM change from baseline (BC-TTM exposure 96 wks): −6.32
UWDRS Part III (Range 0-175) Mean change from baseline (BC-TTM exposure 96 wks): −7.95
UWDRS Part III Functional Subscale (Range 0-10) LSM change from baseline (BC-TTM exposure 96 wks): −0.607
UWDRS Part III Functional Subscale (Range 0-10) Mean change from baseline (BC-TTM exposure 96 wks): −0.900
UWDRS Part III (Range 0-175) LSM change from baseline (BC-TTM exposure 120 wks): −6.69
UWDRS Part III (Range 0-175) Mean change from baseline (BC-TTM exposure 120 wks): −8.92
UWDRS Part III Functional Subscale (Range 0-10) LSM change from baseline (BC-TTM exposure 120 wks): −0.660
UWDRS Part III Functional Subscale (Range 0-10) Mean change from baseline (BC-TTM exposure 120 wks): −0.946
UWDRS Part III (Range 0-175) LSM change from baseline (BC-TTM exposure 144 wks): −7.70
UWDRS Part III (Range 0-175) Mean change from baseline (BC-TTM exposure 144 wks): −9.78
UWDRS Part III Functional Subscale (Range 0-10) LSM change from baseline (BC-TTM exposure 144 wks): −0.803
UWDRS Part III Functional Subscale (Range 0-10) Mean change from baseline (BC-TTM exposure 144 wks): −1.042
UWDRS Part III (Range 0-175) LSM change from baseline (BC-TTM exposure 168 wks): −9.48
UWDRS Part III (Range 0-175) Mean change from baseline (BC-TTM exposure 168 wks): −18.08
UWDRS Part III Functional Subscale (Range 0-10) LSM change from baseline (BC-TTM exposure 168 wks): −0.903
UWDRS Part III Functional Subscale (Range 0-10) Mean change from baseline (BC-TTM exposure 168 wks): −1.841
UWDRS Part III (Range 0-175) LSM change from baseline (BC-TTM exposure 192 wks): −6.13
UWDRS Part III (Range 0-175) Mean change from baseline (BC-TTM exposure 192 wks): −12.65
UWDRS Part III Functional Subscale (Range 0-10) LSM change from baseline (BC-TTM exposure 192 wks): −0.437
UWDRS Part III Functional Subscale (Range 0-10) Mean change from baseline (BC-TTM exposure 192 wks): −1.250
UWDRS Part III (Range 0-175) LSM change from baseline (BC-TTM exposure 216 wks): −6.52
UWDRS Part III (Range 0-175) Mean change from baseline (BC-TTM exposure 216 wks): −16.17
UWDRS Part III Functional Subscale (Range 0-10) LSM change from baseline (BC-TTM exposure 216 wks): −0.430
UWDRS Part III Functional Subscale (Range 0-10) Mean change from baseline (BC-TTM exposure 216 wks): −1.519
UWDRS Part III (Range 0-175) LSM change from baseline (BC-TTM exposure 240 wks): −6.49
UWDRS Part III (Range 0-175) Mean change from baseline (BC-TTM exposure 240 wks): 11.48
UWDRS Part III Functional Subscale (Range 0-10) LSM change from baseline (BC-TTM exposure 240 wks): −0.607
UWDRS Part III Functional Subscale (Range 0-10) Mean change from baseline (BC-TTM exposure 240 wks): −0.898
UWDRS Part III (Range 0-175) LSM change from baseline (BC-TTM exposure 264 wks): −9.57
UWDRS Part III (Range 0-175) Mean change from baseline (BC-TTM exposure 264 wks): −14.00
UWDRS Part III Functional Subscale (Range 0-10) LSM change from baseline (BC-TTM exposure 264 wks): −0.818
UWDRS Part III Functional Subscale (Range 0-10) Mean change from baseline (BC-TTM exposure 264 wks): −0.995
UWDRS Part III (Range 0-175) Mean (Baseline, observed value): 15.43
UWDRS Part III Functional Subscale (Range 0-10) Mean (Baseline, observed value): 1.590
UWDRS Part II, Part III and Part III Functional Subscale scores over up to 5 years (Pooled Studies 301 and 201): continuing improvement
UWDRS Part II Score (Range 0-40), change from baseline, Mean (SD) (Pooled Studies 301 and 201, BC-TTM exposure 4 weeks): −0.3 (2.28)
UWDRS Part II Score (Range 0-40), change from baseline, Mean (SD) (Pooled Studies 301 and 201, BC-TTM exposure 12 weeks): −0.4 (2.76)
UWDRS Part II Score (Range 0-40), change from baseline, Mean (SD) (Pooled Studies 301 and 201, BC-TTM exposure 24 weeks): −0.4 (3.42)
UWDRS Part II Score (Range 0-40), change from baseline, Mean (SD) (Pooled Studies 301 and 201, BC-TTM exposure 36 weeks): −0.9 (4.11)
UWDRS Part II Score (Range 0-40), change from baseline, Mean (SD) (Pooled Studies 301 and 201, BC-TTM exposure 48 weeks): −1.2 (4.24)
UWDRS Part II Score (Range 0-40), change from baseline, Mean (SD) (Pooled Studies 301 and 201, BC-TTM exposure 60 weeks): −1.4 (4.35)
UWDRS Part II Score (Range 0-40), change from baseline, Mean (SD) (Pooled Studies 301 and 201, BC-TTM exposure 72 weeks): −1.9 (4.74)
UWDRS Part II Score (Range 0-40), change from baseline, Mean (SD) (Pooled Studies 301 and 201, BC-TTM exposure 96 weeks): −2.5 (6.11)
UWDRS Part II Score (Range 0-40), change from baseline, Mean (SD) (Pooled Studies 301 and 201, BC-TTM exposure 120 weeks): −3.1 (6.82)
UWDRS Part II Score (Range 0-40), change from baseline, Mean (SD) (Pooled Studies 301 and 201, BC-TTM exposure 144 weeks): −3.3 (6.61)
UWDRS Part II Score (Range 0-40), change from baseline, Mean (SD) (Pooled Studies 301 and 201, BC-TTM exposure 168 weeks): −6.2 (10.17)
UWDRS Part II Score (Range 0-40), change from baseline, Mean (SD) (Pooled Studies 301 and 201, BC-TTM exposure 192 weeks): −5.9 (9.88)
UWDRS Part II Score (Range 0-40), change from baseline, Mean (SD) (Pooled Studies 301 and 201, BC-TTM exposure 216 weeks): −7.1 (10.90)
UWDRS Part II Score (Range 0-40), change from baseline, Mean (SD) (Pooled Studies 301 and 201, BC-TTM exposure 240 weeks): −6.6 (10.09)
UWDRS Part II Score (Range 0-40), change from baseline, Mean (SD) (Pooled Studies 301 and 201, BC-TTM exposure 264 weeks): −6.2 (9.02)
